Where a SMILES comes first, the peptide text is derived from it.
Experiments:
[1] = tested on: CVLP-stimulated CD8-positive T cells; assay: Restimulating HPV16 CVLP-stimulated T cells with BLCL presenting HPV16 peptide pools (example 14); type: cell-based, human; conditions: peptide common to two reactive HPV16 pools; CD8/IFNγ
Method: (§1) In analogy with example 6, human T cells derived from a non-HLA-typed blood donor were stimulated with HPV16L1ΔC*E71-55 CVLPs and harvested.
The T cells were then restimulated, at 37° C. and in 100 μl of medium, with the peptide pools from example 7 and 10^5 antigen-presenting cells (donor-identical BLCL) in the presence of 10 IU of IL2/ml. Use was made, in this connection, of quantities of the peptide pools which were such that 1 μg/ml was added in the case of each individual peptide. Cells which were only incubated with buffer served as the negative control, while cells which were incubated with the HPV16 L1 or E7 peptide pool served as positive controls.
(§2) 1 μl of monensin was added after an hour. The cells were then incubated at 37° C. for a further 5 hours. After that, the cells were fixed and permeabilized and stained with α-human CD8/APC, with α-human CD4/PerCP and with α-human IFNγ/FITC. The labeling of the cells was examined in a FACScan Calibur and the results of the measurements were analyzed using Cellquest software.

[2] = tested on: peptide-stimulated CD8-positive murine T cells; assay: Restimulating HPV16 L1 peptide-stimulated murine T cells with peptide-presenting JAWS cells (IFNγ FACScan); type: cell-based, C57BL/6 mice; conditions: for proportion of CD8-positive T cells reactive on the basis of IFNγ expression: 1 μg peptide/ml, JAWS cells, T cells of HPV16L1ΔC*E71-55 CVLP-inoculated C57BL/6 mice, FIG. 1; for T cell epitope assignment: conclusion from FIG. 1
Method: Murine T cells (4×10^5) derived from HPV16L1ΔC*E71-55 CVLP-inoculated C57BL/6 mice were stimulated for 5 weeks with HPV16 L1 peptide pools at 37° C., with the weekly addition of 1 μg of each individual peptide/ml and 10^5 antigen-presenting cells (irradiated splenocytes), and harvested. The cells were subsequently restimulated, in 100 μl of medium at 37° C., with 1 μg of the peptides given on the X axis in FIG. 1/ml and 10^5 antigen-presenting cells (JAWS) in the presence of 10 IU of IL2/ml. Cells which were only incubated with buffer serve as the negative control.
After an hour, 1 μl of monensin (300 μM) was added. The cells were incubated at 37° C. for a further 5 hours. The cells were then fixed and permeabilized and stained with α-mouse CD8/PE, with α-mouse CD4/cychrome and with α-mouse interferon γ/FITC. The labeling of the cells was analyzed in a FACScan caliber and the results of the measurements were analyzed using Cellquest software.

[3] = tested on: HPV18 CVLP-stimulated human T cells; assay: Restimulating HPV18 CVLP-stimulated T cells with BLCL presenting Q38, Q39, Q46 or Q47 (example 13); type: cell-based; conditions: conclusion from FIG. 12 top right
Method: In analogy with example 6, human T cells (4×10^5) derived from a non-HLA-typed blood donor were stimulated with HPV18L1ΔCDIE71-53DI CVLPs and HPV18L1ΔCDIE71-60DI CVLPs and harvested.
The T cells were then restimulated, at 37° C. and in 100 μl of medium, with in each case 1 μg of peptide Q38, Q39, Q46 or Q47/ml and 10^5 antigen-presenting cells (donor-identical BLCL) in the presence of 10 IU of IL2/ml. Cells which were only incubated with buffer served as the negative control while cells which were incubated with the HPV18 L1 peptide pool or the E7 peptide pool served as positive controls.
as §2

human T cells = assay: Summary of examples 3 to 18: epitopes recognized by human T cells; type: cell-based; conditions: Table 3, HPV16 peptides, species human; TC cytotoxic, TH T helper
[4] = tested on: CVLP-stimulated T cells (CD4-positive); assay: Restimulating HPV16 CVLP-stimulated T cells with BLCL presenting pools or P39 (example 9; IFNγ and IL4); type: cell-based, human; conditions: for T cell epitope assignment (TH2): peptide common to two reactive HPV16 pools, CD4/IL4
Method: as §1
The T cells were then restimulated, at 37° C. and in 100 μl of medium, with the peptide pools from example 7 and 10^5 antigen-presenting cells (donor-identical BLCL) in the presence of 10 IU of IL2/ml. Use was made, in this connection, of quantities of the peptide pools which was such that 1 μg/ml was added in the case of each individual peptide. Cells which were only incubated with buffer served as the negative control while cells which were incubated with HPV16 L1 peptide pool served as positive controls.
as §2

RMA cells = assay: 51Cr release: lysing HPV18 peptide-loaded RMA cells (example 17); type: cell-based, murine; conditions: for T cell epitope assignment: conclusion from FIG. 16 upper part; for specific lysis of target cells (51Cr release): peptide-loaded RMA cells, effector:target 20, FIG. 16 upper part
Method: In analogy with example 4, RMA or LKK cells were radioactively labeled with ^51Cr and incubated with the peptides (Q43 and Q44 in the upper part of FIG. 16 and Q49 in the lower part of FIG. 16) which are plotted on the X axis. Cells without peptide served as negative controls. T cells which had previously been stimulated with the peptide pool were then added.
The lysis of the RMA cells or LKK cells by the T cells was measured by the release of the ^51Cr and calculated as described in example 4.

[5] = tested on: peptide-stimulated murine CD8-positive T cells; assay: Restimulating HPV18 peptide-stimulated murine T cells with peptide-presenting LKK cells (IFNγ FACScan); type: cell-based, C3H mice; conditions: for proportion of CD8-positive T cells reactive on the basis of IFNγ expression: 1 μg peptide/ml, LKK cells, T cells of HPV18 CVLP-inoculated C3H mice, FIG. 3, 4; for T cell epitope assignment: conclusion from FIG. 3, 4
Method: Murine T cells (4×10^5) derived from C3H mice inoculated with HPV18 L1ΔCDIE71-53DI CVLPs and HPV18 L1ΔCDIE71-6ODI CVLPs were stimulated for 5 weeks with HPV18 L1 or E7 peptide pools at 37° C., with the weekly addition of 1 μg of each individual peptide/ml and 10^5 antigen-presenting cells (irradiated splenocytes), and harvested. The cells were then restimulated, at 37° C. and in 100 μl of medium, with 1 μg of the peptides given on the X axis in FIG. 3/ml and 10^5 antigen-presenting cells (LKK) in the presence of 10 IU of IL2/ml. Cells which were only incubated with buffer served as the negative control.
1 μl of monensin (300 μm) was added after an hour. The cells were incubated at 37° C. for a further 5 hours. The cells were then fixed and permeabilized and stained with α-mouse CD8/PE, with α-mouse CD4/cychrome and with α-mouse interferony/FITC. The labeling of the cells was analyzed in a FACScan Calibur and the results of the measurement were analyzed using Cellquest software.

[6] = tested on: CVLP-stimulated human CD4-positive T cells; assay: Restimulating HPV18 CVLP-stimulated T cells with BLCL presenting HPV18 peptide pools (example 6); type: cell-based; conditions: peptide common to two reactive HPV18 pools; CD4/IFNγ
Method: Human T cells (4×10^5) from a non-HLA-typed blood donor were stimulated for 1 week with HPV18 L1ΔCDIE71-53DI CVLPs and HPV18 L1ΔACDIE71-60DI CVLPS, 800 U of human GM-CSF/ml and 500 U of human IL4/ml and also, for a further 5 weeks, with HPV18 L1ΔCDIE71-53DI CVLPs and HPV18 L1ΔCDIE71-6ODI CVLPs at 37° C., with the weekly addition of 1 μg of the CVLPs mixLure (ratio of the two constructs 1:1)/ml and 10^5 antigen-presenting cells (irradiated PMBC), and harvested.
The 20 mer peptides Q1 to 52 were assembled into peptide pools A to H and 1 to 7, respectively, in accordance with the matrix
The T cells were then restimulated, at 37° C. and in 100 μl of medium, with the peptide pools and 10^5 antigen-presenting cells (donor-identical BLCL) in the presence of 10 IU of IL2/ml. The quantities of the peptide pools which were used in this connection were such that. 1 μg/ml was added in the case of each individual peptide.
Cells which were only incubated with buffer served as the negative control while cells incubated with the HPV18 L1 peptide pool and the HPV18 E7 peptide pool, respectively, served as positive controls.
as §2, with “analyzed” for “examined”

STDEYVARTNIYYHAGTSRL [P3, HPV16 L1 23-42]
T cell epitope assignment [1]: contain a cytotoxic T cell epitope | proportion of CD8-positive T cells reactive on the basis of IFNγ expression [2]: brought about a restimulation | T cell epitope assignment [2]: contain H2b-restricted cytotoxic T cell epitopes

CC[C@H](C)[C@H](NC(=O)[C@H](C)NC(=O)[C@@H](NC(=O)[C@H](CO)NC(=O)[C@H](CCC(N)=O)NC(=O)[C@@H](NC(=O)[C@H](Cc1ccccc1)NC(=O)[C@H](CCCNC(=N)N)NC(=O)[C@@H](N)Cc1ccc(O)cc1)C(C)C)C(C)C)C(=O)N[C@H](C(=O)N[C@@H](CS)C(=O)N[C@@H](CCC(N)=O)C(=O)N[C@@H](CCCCN)C(=O)N[C@@H](CC(=O)O)C(=O)N[C@@H](C)C(=O)N[C@@H](C)C(=O)N1CCC[C@H]1C(=O)N[C@@H](C)C(=O)N[C@@H](CCC(=O)O)C(=O)N[C@@H](CC(N)=O)C(=O)O)[C@@H](C)O [Q39]
T cell epitope assignment (cytotoxic) [3]: contain cytotoxic T cell epitopes

NNNKILVPKVSGLQYRVFRI [P6, HPV16 L1 56-75]
T cell epitope assignment [1]: contain a cytotoxic T cell epitope

PPPGGTLEDTYRFVTSQAIA [P38, HPV16 L1 408-427]
Epitope type (human T cells): TH2 | T cell epitope assignment (TH2) [4]: contains a TH2 epitope

YPLGRKFLVQAGMHGPKATL [Q43, HPV18 L1 463-474 and E7 1-8]
T cell epitope assignment (RMA cells): H2b-restricted cytotoxic T cell epitopes | specific lysis of target cells (51Cr release) (RMA cells): able to efficiently lyse | proportion of CD8-positive T cells reactive on the basis of IFNγ expression [5]: brought about a restimulation | T cell epitope assignment [5]: contain H2k-restricted cytotoxic T cell epitopes

CC[C@H](C)[C@H](NC(=O)[C@H](CCC(=O)O)NC(=O)[C@H](CC(=O)O)NC(=O)[C@H](CC(N)=O)NC(=O)[C@H](CCC(=O)O)NC(=O)[C@H](CCC(=O)O)NC(=O)[C@H](CCC(=O)O)NC(=O)[C@@H](N)CO)C(=O)N[C@@H](CC(=O)O)C(=O)NCC(=O)N[C@H](C(=O)N[C@@H](CC(N)=O)C(=O)N[C@@H](Cc1c[nH]cn1)C(=O)N[C@@H](CCC(N)=O)C(=O)N[C@@H](Cc1c[nH]cn1)C(=O)N[C@@H](CC(C)C)C(=O)N1CCC[C@H]1C(=O)N[C@@H](C)C(=O)N[C@@H](CCCNC(=N)N)C(=O)N[C@@H](CCCNC(=N)N)C(=O)O)C(C)C [Q47] (H-SEEENDEIDGVNHQHLPARR-OH; N-terminus and C-terminus assumed)
T cell epitope assignment (cytotoxic) [3]: contain cytotoxic T cell epitopes

GGNKQDIPKVSAYQYRVFRV [Q6, HPV18 L1 56-75]
T cell epitope assignment [6]: contains a T helper epitope

CC[C@H](C)[C@H](NC(=O)[C@H](C)NC(=O)[C@@H](NC(=O)[C@H](CO)NC(=O)[C@H](CCC(N)=O)NC(=O)[C@@H](NC(=O)[C@H](Cc1ccccc1)NC(=O)[C@H](CCCNC(=N)N)NC(=O)[C@H](Cc1ccc(O)cc1)NC(=O)[C@@H](NC(=O)[C@H](CC(=O)O)NC(=O)[C@@H](NC(=O)[C@H](CC(C)C)NC(=O)[C@H](CO)NC(=O)[C@@H](NC(=O)[C@@H](NC(=O)[C@@H]1CCCN1C(=O)[C@@H]1CCCN1C(=O)[C@@H]1CCCN1C(=O)[C@@H]1CCCN1)[C@@H](C)O)[C@@H](C)O)C(C)C)[C@@H](C)O)C(C)C)C(C)C)C(=O)O [Q38]
T cell epitope assignment (cytotoxic) [3]: contain cytotoxic T cell epitopes

MALWRPSDNTVYLPPPSVAR [Q1, HPV18 L1 1-20]
T cell epitope assignment [6]: contain T helper epitopes

PLGRKFLLQAGMHGDTPTLH [P43, HPV16 L1 463-473 and E7 1-9]
T cell epitope assignment [1]: contain a cytotoxic T cell epitope | proportion of CD8-positive T cells reactive on the basis of IFNγ expression [2]: brought about a restimulation | T cell epitope assignment [2]: contain H2b-restricted cytotoxic T cell epitopes

YCYEQLNDSSEEEDEIDGPA [P46, HPV16 E7 23-42]
T cell epitope assignment [1]: contain a cytotoxic T cell epitope

MLDLQPETTDLYCYEQLNDS [P45, HPV16 E7 12-31]
T cell epitope assignment [1]: contain a cytotoxic T cell epitope

PYDKLKFWNVDLKEKFSLDL [Q41, HPV18 L1 441-460]
proportion of CD8-positive T cells reactive on the basis of IFNγ expression [5]: brought about a restimulation | T cell epitope assignment [5]: contain H2k-restricted cytotoxic T cell epitopes | T cell epitope assignment [6]: contain T helper epitopes

MSLWLPSEATVYLPPVPVSK [P1, HPV16 L1 1-20]
T cell epitope assignment [1]: contain a cytotoxic T cell epitope

LKKYTFWEVNLKEKFSADLD [P41, HPV16 L1 441-460]
T cell epitope assignment [1]: contain a cytotoxic T cell epitope

MHGPKATLQDIVLHLEPQNE [Q44, HPV18 E7 1-20]
T cell epitope assignment (RMA cells): H2b-restricted cytotoxic T cell epitopes | specific lysis of target cells (51Cr release) (RMA cells): able to efficiently lyse | proportion of CD8-positive T cells reactive on the basis of IFNγ expression [5]: brought about a restimulation | T cell epitope assignment [5]: contain H2k-restricted cytotoxic T cell epitopes

RFVTSQAIACQKHTPPAPKE [P39, HPV16 L1 419-438]
Epitope type (human T cells): TH1, TH2 | T cell epitope assignment (TH1) ([4]; CD4-positive and IFNγ-positive, pools G and 5 and P39 alone): contains a T helper epitope | proportion of CD4-positive and IFNγ-positive cells (TH1) ([4]; HPV16 pools or P39, donor-identical BLCL, FIG. 8 top): very high | T cell epitope assignment (TH2) [4]: contains a TH2 epitope

From patent US20040091479A1, “T-cell epitope of the papillomavirus l1 and e7 protein and use thereof in diagnostics and therapy” (priority 2000, published 2004)
